Measurements taken from US20220354818A1, “METHODS FOR TREATING BRAIN INJURY OR COGNITIVE DYSFUNCTION BY PHARMACOLOGICAL ENHANCMENT OF M-TYPE POTASSIUM ION CURRENTS IN NEURONS” (Advanced Neuroresearch Therapeutics LLC, priority 2019, published 2022).
“Also recorded” adds a separate entry of the source.

Columns and labels:
[1] = tested on: mice subjected to one blunt TBI, pentylenetetrazol (PTZ); experiment: PTZ-induced seizure susceptibility after one blunt TBI (CCCI); type: in vivo, mouse; conditions: RL648_81 at 0.1 mg/kg; PTZ 35 mg/kg s.c. fifth day post-TBI
Text: Stimulation with PTZ induced the occurrence of clonic and tonic-clonic seizures in TBI-subjected mice.

[2] = tested on: cortical neurons; experiment: In vivo two-photon calcium imaging of cortical neurons through a cranial window after TBI; conditions: living mouse brain
Text: Referring now to FIG. 9, another embodiment of the present invention concerns in vivo imaging of intracellular calcium levels in neurons from living brain in vivo, as a reporter of activity/hyperactivity. The genetically-encoded calcium reporter, GCaMP6f, was used in transgenic mice in which the reporter is expressed in critical subsets of brain neurons, allowing in vivo recordings of neurons of living brain, as a reporter of activity/hyperactivity in cortex induced by TBI, the first event in the hypothesis of the present invention, which causes TBI-induced brain damage (See, e.g., FIG. 1). For these experiments two-photon confocal live imaging of mouse cortical neurons through a cortical window was used. Live video records of the activity of cortical neurons in mice before and after TBI were made.

[3] = tested on: mice subjected to one blunt TBI (CCCI); experiment: Dosage optimization: spontaneous myoclonic seizures after one blunt TBI (CCCI); type: in vivo, mouse; conditions: RL648_81 0.03, 0.1 and 0.3 mg/kg i.p. once 30 minutes post-TBI
Procedure: An additional KCNQ2/3-specific compound, RL648_81 was also administered in the same manner (0.03 mg/kg, 0.1 mg/kg, and 0.3 mg/kg). […] To monitor the occurrence of spontaneous myoclonic seizures after, the mice were video/EEG monitored from the second to the fourth day after the TBI (72 hours total).

[4] = tested on: neurons of the dentate gyrus of the hippocampus; experiment: Ex vivo brain-slice calcium imaging (GCaMP6f) with kainic acid stimulation after TBI; type: in vivo, mouse; conditions: RL648_81 30 minutes after blunt TBI
Procedure: In another embodiment of the present invention, ex vivo imaging of intracellular calcium levels in neurons, which are a reporter of activity or hyper-activity of neurons, were assayed in the brain slices using transgenic mice expressing the genetically encoded indicator of calcium levels, GCaMP6f expressed only in neurons.
Turning now to FIG. 8, the chemo-convulsant, kainic acid (KA), was used to stimulate neurons from brain slices of the dentate gyms (DG) of the hippocampus (the part of the brain where most new memories are thought to form) from sham mice, mice subjected to a TBI but not drug or TBI followed by RL-648_81.

[5] = tested on: sympathetic neuron; experiment: Action potential firing in a sympathetic neuron, current-clamp
Text: Various currents are applied in “current-clamp” mode 44 ranging from 50 pA to −100 pA, and the resulting AP firing recorded.

With `CCOC(=O)Nc1ccc(NCc2ccc(C(F)(F)F)cc2)c(F)c1N` [RL648_81] the “occurrence of PTZ-induced seizures” value [1] was “completely blocked the occurrence of PTZ-induced seizures”, the “TBI-induced hyper-excitability in cortex imaged in vivo” value [2] was “prevents TBI-induced hyper-excitability in cortex” and the “occurrence of TBI-induced myoclonic seizures” value [3] was “measurably reduced the occurrence of TBI-induced myoclonic seizures”. For the same compound, the “TBI-induced increase in hyper-activity in response to kainic acid stimulation (hippocampal slices, ex vivo)” value [4] was “reduces the increased seizure susceptibility in brain slices; also recorded: completely abolished”.
In the case of `O=C1N(c2ccccc2)c2ccccc2C1(Cc1ccncc1)Cc1ccncc1` [leopardine], the “action potential firing in response to stimuli” value [5] is reported as “out-of-control AP firing”.
